How the values were obtained:
DYRK1A kinase domain = target: T1, DYRK1A kinase domain (Homo sapiens, UniProt Q13627); assay: MST direct binding assay
T1 construct: kinase domain of DYRK1A (126–490) was cloned into pET24a with C-terminal His-tag; made in house; host or cells: E. coli BL21 (DE3) RIL

DYRK1A = target: T2, DYRK1A (Homo sapiens, UniProt Q13627); assay: Cook activity assay (ATP regenerative NADH consuming DYRK1A activity assay); format: biochemical
T2 construct: kinase domain of DYRK1A (126–490) was cloned into pET24a with C-terminal His-tag; His-tag (C); made in house; host or cells: E. coli BL21 (DE3) RIL

NFAT = NFAT luciferase reporter assay in HEK 293 NFAT cell line expressing DYRK1A; format: cell-based
Experimental: The Renilla luciferase reporter assay was performed in HEK 293 NFAT cell line, constitutively expressing DYRK1A, NFAT and Renilla luciferase under the control of an NFAT-RE promoter. The cells were seeded at 10,000 per well in 96-well white plates (Cellstar, Greiner; Burlington, MA, United States). The following day cells were incubated with the indicated concentration of inhibitor for 30 min, then the medium was changed, and cells were stimulated with 1 μM ionomycin and 10 nM PMA for 5 h. Next, the cell lysate was harvested to measure luciferase activity with Renilla-Glo Luciferase Assay System (Promega, Wisconsin, United States). All experiments were carried out in triplicates.

INS-1E and MIN6 cells [1] = assay: GSIS and insulin, C-peptide, glucagon staining (flow cytometry, confocal); format: cell-based, rat, mouse; parameters: key to insulin+ / glucagon+ / C-peptide+: ↑: moderate; ↑↑: most potent
Experimental: Cells were cultured in a low glucose medium (5.5 mM) for 24 h. After this medium was changed to lower glucose medium (2 mM) for 2 h and then for high glucose medium (25 mM) for 30 min, media were harvested and/or cells were used for further analysis.
The presence of insulin, glucagon, C-peptide, Ki67, and DYRK1A was assessed in MIN6 and INS-1E pancreatic cell lines. Before imaging, cells were seeded onto slides at a density of 1 × 10^5 cells and maintained at 37 °C in 95% atmospheric air and 5% CO2 in a humidified atmosphere for 24 h. After washing with fresh medium, cells were incubated with 5 µM inhibitor solution for 24 h. After this time, the solution was replaced with a culture medium for another 48 h. The cells were fixed. Then after washing and permeabilization, they were incubated with specific antibodies diluted in PBS. Next, the cells were incubated for 10 min with Hoechst33342 (Sigma-Aldrich). After incubation, at 37 °C, in the dark, the cells were washed twice with HBSS (Gibco), the slide was transferred to a microscope table, and the cells were visualized under a Zeiss LSM 880 confocal microscope (Carl Zeiss, Jena, Germany) with a 63× immersion objective. Images were analyzed by Zeiss ZEN Software.
The presence of insulin, glucagon, C-peptide, Ki67 and DYRK1A was assessed in MIN6 and INS-1E pancreatic cell lines. Before analysis, cells were seeded onto slides at a density of 1 × 10^5 cells and maintained at 37 °C in 95% atmospheric air and 5% CO2 in a humidified atmosphere for 24 h. After washing with fresh medium, cells were incubated with 5 µM inhibitor solution for 24 h. After this time, the solution was replaced with a culture medium for another 48 h. The cells were then detached from the plate using trypsin. The cells were fixed. Then after washing and permeabilization, they were incubated with specific antibodies diluted in PBS. Cells were analyzed with BDAccuri flow cytometer and calculated using FlowJo software (Ashland, Oregon-based FlowJo LLC, a subsidiary of Becton Dickinson).

[2] = test system: hiPSC-derived pancreatic organoids; assay: Insulin secretion assay in hiPSC-derived β-cell organoids (ELISA); format: cell-based, human; parameters: key to insulin secretion (ELISA): ↑: moderate; ↑↑: most potent
Experimental: Differentiation of hiPSC into iPSC-derived β-cell islets was carried out following the protocol established by Pellegrini et al. for pluripotent stem cells with slight modifications. A day before differentiation, 800,000 cells were seeded on coated with Geltrex (Gibco) 12 wells plate in Essential 8 medium (Gibco) with Y-27632 10 µM (Abcam). The following culture media were used for differentiation:
M1 medium: MCDB131 (Gibco) + 8 mM D-(þ)-Glucose (Sigma) + 1.23 g/L NaHCO3 (Sigma) + 2% BSA (Sigma) + 0.25 mM Vitamin C (Sigma) + 1% Pen/Strep (Lonza, Basel, Switzerland) + 1% L-glutamine (Lonza);
M2 medium: MCDB131 + 20 mM D-Glucose + 1.754 g/L NaHCO3 + 2% BSA + 0.25 mM Vitamin C + Heparin 10mg/mL (Sigma) + 1% Pen/Strep + 1% L-glutamine. All media were filter-sterilized through a 0.22 µm bottle top filter (Corning, New York, NY, USA). For sequential culture medium changes, small molecules and growth factors were added to the base media immediately before daily exchange. Media switches were as follows: days 0–3: STEMdiff™ Definitive Endoderm Kit ([…], Vancouver, Canada) used following manufacturer instructions; days 4–6: M1 medium + 50 ng/mL KGF (Peprotech, London, UK) + 1:50,000 ITS-X (Invitrogen, Carlsbad, CA, USA); days 7–8: M1 medium + 50 ng/mL KGF + 0.25 µM Sant1 (Sigma) + […] Retinoic acid (RA) (Sigma) + 500 nM PdBU (Millipore, Berlington, MA, United States) + 1:200 ITS-X + 200 nM LDN193189 (only Day 7) (Sigma); days 9–13: M1 medium + 50 ng/mL KGF + 0.25 µM Sant1 + 100 nM RA + 1:200 ITS-X; days 14–18: M2 medium + 0.25 µM Sant1 + 100 nM RA + 1 µM XXI (Millipore) + 10 µM Alk5i II (Selleckchem, Munich, Germany) + 1 µM L-3,30,5-Triiodothyronine (T3) (Sigma) + 20 ng/mL Betacellulin (R&D, Minneapolis, MN, USA) + 1:200 ITS-X.
The Insulin ELISA (Ultra Sensitive) was used to quantify insulin levels in control and treated organoids and isolated islets from the mouse pancreas (Crystal Chem, Downers Grove, IL, USA). Islets were homogenized in lysis buffer. Obtained buffer lysates and medium samples (after GSIS) were analyzed for total protein level and subsequently processed following the manufacturer’s protocol.

INS-1E and MIN6 cells [3] = assay: MTT cytotoxicity and cell survival assay, β-cell lines
[4] = Table 2, Biochemistry, unit inferred
[5] = combination with TGF-β inhibitors

Kd (DYRK1A kinase domain; MST direct binding, 20 nM fluorescent-labelled DYRK1A kinase domain): 1800 ± 500 nM
Kd (DYRK1A kinase domain; [4]): 1830 ± 543 nM
Ki (DYRK1A; Cook assay, DYRK1A 0.5 µM, ATP 128 µM, DYRKtide 1 mM): 200 ± 300 nM
Ki (DYRK1A; Cook assay, phosphorylation of substrate peptide): < 200 nM
Ki (DYRK1A; [4]): 170 ± 260 nM
SMILES: O=c1ccc2cnc3ccc(-c4cn[nH]c4)cc3c2n1-c1ccc(F)cc1C(F)(F)F [AC27, 1-(4-fluoro-2-(trifluoromethyl)phenyl)-9-(1H-pyrazol-4-yl)benzo[h][1, 6]naphthyridin-2-one]
activity relative to harmine in NFAT assay (NFAT; 1 µM AC27 gives same activity as 10 µM harmine): ~10 times
increase of NFAT activity (NFAT; low concentration range 0.03 µM–1 µM): ≤ 6 fold
glucagon level (INS-1E and MIN6 cells [1]; 5 μM, compound alone): balanced (lower) glucagon level
insulin/C-peptide secretion (INS-1E and MIN6 cells [1]; GSIS, compound alone): higher insulin/C-peptide secretion
C-peptide+ (INS-1E and MIN6 cells [1]; Table 2, Cell lines): ↑↑
glucagon+ (INS-1E and MIN6 cells [1]; Table 2, Cell lines): ↑
insulin+ (INS-1E and MIN6 cells [1]; Table 2, Cell lines): ↑↑
time the effect remained stable (INS-1E and MIN6 cells [1]; after inhibitor action): up to 12 days
glucagon level after GSIS (INS-1E and MIN6 cells [1]; [5]): reduced
insulin/C-peptide secretion (INS-1E and MIN6 cells [1]; [5]): markedly improved
increase in insulin expression (INS-1E and MIN6 cells [1]; discussion statement): more than 60%
insulin release ([2]; GSIS, compared with untreated control cells): markedly increased insulin release
insulin secretion (ELISA) ([2]; Table 2, hiPSC): ↑
concentration without significant toxic effects (INS-1E and MIN6 cells [3]; MTT, 24 h): up to 5 μM
toxicity (INS-1E and MIN6 cells [3]; Table 2, Cell lines): no
